Target: β2-adrenergic receptor (β2AR) (Homo sapiens, UniProt P07550)
Assay: radioligand saturation binding on membranes

Sequence of β2-adrenergic receptor (β2AR) (P07550 whole entry): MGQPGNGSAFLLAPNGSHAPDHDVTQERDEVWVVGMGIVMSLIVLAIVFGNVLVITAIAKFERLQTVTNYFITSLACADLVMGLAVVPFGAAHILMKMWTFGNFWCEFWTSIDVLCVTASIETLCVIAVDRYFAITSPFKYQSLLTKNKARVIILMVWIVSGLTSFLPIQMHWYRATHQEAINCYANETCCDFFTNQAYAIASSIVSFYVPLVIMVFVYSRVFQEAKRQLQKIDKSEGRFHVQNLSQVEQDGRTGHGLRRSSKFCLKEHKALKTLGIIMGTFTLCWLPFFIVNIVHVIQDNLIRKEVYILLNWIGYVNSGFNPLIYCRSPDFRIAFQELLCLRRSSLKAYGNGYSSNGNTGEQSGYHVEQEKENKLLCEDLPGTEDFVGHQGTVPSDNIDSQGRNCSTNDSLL

Kd: 0.42 ± 0.1 nM
Structure (SMILES): CCCc1ccccc1OCC(O)CNC(C)C (stereo not shown) [[3H]dihydroalprenolol]

Source: publication PMC317295 (BMC Pharmacology, 2003)
